Test results taken from ChEMBL document CHEMBL3779778, “Structure-based design and development of (benz)imidazole pyridones as JAK1-selective kinase inhibitors” (Bioorg Med Chem Lett, 2016).

Tests used:
[1] = Intrinsic clearance in human liver microsomes; format: ADME; settings: read-out: CLH
[2] = Intrinsic clearance in human hepatocytes; format: ADME, cell-based, Hepatocyte; settings: read-out: CLH
[3] = Dissociation constant, pKa of the compound; format: physicochemical

CLint scaled [1]	CLint scaled [2]	pKa [3]	Structure (SMILES)
< 15 mL/min/kg	12 mL/min/kg	–	N[C@H]1CC[C@@H](Nc2cc[nH]c(=O)c2-c2nc3ccccc3[nH]2)CC1
–	–	9.2	COCCN[C@H]1CC[C@@H](Nc2cc[nH]c(=O)c2-c2nc3ccccc3[nH]2)CC1
–	–	10.5	CCN[C@H]1CC[C@@H](Nc2cc[nH]c(=O)c2-c2nc3ccccc3[nH]2)CC1
–	–	4.8	O=c1[nH]ccc(N[C@H]2CC[C@@H](NCC(F)(F)F)CC2)c1-c1nc2ccccc2[nH]1

Structure (SMILES)	CLint scaled [1]	CLint scaled [2]	pKa [3]
O=c1[nH]ccc(N[C@H]2CC[C@@H](NCCF)CC2)c1-c1nc2ccccc2[nH]1	–	–	8.8
O=c1[nH]ccc(N[C@H]2CC[C@@H](NCC(F)F)CC2)c1-c1nc2ccccc2[nH]1	–	–	6.6
